Legend:
Assay type in all cases: cell-based, mice
EpiSC-derived OPCs [1] = experiment: Differentiation of EpiSC-derived OPCs into oligodendrocytes; settings: day 2 of differentiation, absence of FGF2 and PDGF-AA, n>480 cells
Method: (§1) For differentiation of OPCs into oligodendrocytes, cells were plated at 2.2×10^4 cells cm^−2 and induced with neural base medium supplemented with 0.4 ng ml^−1 T3 (Sigma-Aldrich, St. Louis, Mo.), 200 ng ml^−1 SHH, 100 ng ml^−1 noggin, 10 μM dibutyryl cyclic-AMP sodium salt, 100 ng ml^−1 IGF-1 and 10 ng ml^−1 NT3. Attempts to modulate the outcome of this differentiation paradigm included treatments with Jag1 (R&D Systems, Minneapolis, Minn.), CHIR99021 (Stemgent, San Diego, Calif.), LIF (Millipore, Billerica, Mass.) and/or BMP4 (R&D Systems, Minneapolis, Minn.).
Live-cell staining was used for the cell-surface marker O4. Live cells were blocked with 10% normal goat serum and treated with O4 antibody for 20 min at 37° C. Cells were gently rinsed three times with warm neural base medium and fixed in 4% paraformaldehyde. […]
To determine the differentiation capacity of the EpiSC-derived OPCs, the EpiSc-derived OPCs were treated with thyroid hormone (T3), which is known to be important both in vitro and in vivo in regulating the transition of OPCs into oligodendrocytes, in the absence of both FGF2 and PDGF-AA. […] By day 4, the overwhelming majority of EpiSC-derived OPCs had become oligodendrocytes, though cell death and rare proliferation events made exact quantification challenging without large-scale time-lapse lineage analysis. […]

EpiSC-derived OPCs [2] = experiment: Modulation of OPC differentiation by extrinsic factors in T3 differentiation medium
Method: as §1
Next, the ability of extrinsic factors to modulate the differentiation of Epi-SC-derived OPCs was explored. […] As a simple proof-of-principle for using the system to screen for compounds, EpiSC-derived OPCs were exposed to three different treatment regimens involving modulation of signaling pathways (Notch, Wnt-β-catenin and BMP) previously implicated in oligodendrocyte development or differentiation. […] Using a similar protocol, the role of GSK3β, a negative regulator of Wnt-β-catenin signaling, was tested by treating EpiSC-derived OPCs with the GSK3β inhibitor CHIR99021.

EpiSC-derived OPCs [3] = experiment: Respecification of EpiSC-derived OPCs into astrocytes; settings: combined treatment with BMP4 and LIF; majority of cells
Method: as §1
The final treatment involved exposure of EpiSC-derived OPCs to signaling cascades known to respecify OPCs in vitro into an alternate glial fate, astrocytes.

[4] = system: EpiSC-derived patterned neuroectoderm; experiment: Region-specific patterning of EpiSC-derived neuroectoderm; settings: Day-4 neuroectoderm treated 1 day with retinoic acid and SHH in continued presence of noggin (combined)
Method: On day 4, cultures were fed with neural base medium supplemented with 100 ng ml^−1 noggin, 10 μM retinoic acid (Sigma-Aldrich, St. Louis, Mo.; maintained as a 20 mM stock solution in DMSO) and 200 ng ml^−1 SHH (R&D Systems; C24II). To test whether the induced patterned neuroectoderm behaved as un-induced neuroectoderm behaves, the induced EpiSC-derived patterned neuroectoderm were patterned in a region-specific manner. […] Day-4 EpiSC-derived patterned neuroectoderm was treated for 1 day with specific concentrations of retinoic acid and SHH in the continued presence of noggin to pattern them in a region-specific way.

N[C@@H](Cc1cc(I)c(Oc2ccc(O)c(I)c2)c(I)c1)C(=O)O [T3, triiodothyronine]
cells strongly O4+ with multiprocessed morphology (EpiSC-derived OPCs [1]): greater than 64%

Jagged1: the Notch ligand Jagged1 (Jag1)
rate or number of O4+ oligodendrocytes (EpiSC-derived OPCs [2]; 2 days, T3 differentiation medium): did not impact

LIF: leukemia inhibitory factor, activator of JAK/STAT pathways
respecification into astrocytes (morphological and gene expression changes) (EpiSC-derived OPCs [3]): upregulation of GFAP

Cc1c[nH]c(-c2cnc(NCCNc3ccc(C#N)cn3)nc2-c2ccc(Cl)cc2Cl)n1 [CHIR99021]
expression of mature oligodendrocyte markers (EpiSC-derived OPCs [2]; FIG. 5, treatment of OPCs): suppression
oligodendrocyte differentiation (progression of Olig2+ OPCs to O4+ oligodendrocytes) (EpiSC-derived OPCs [2]; T3 differentiation medium, FIG. 5): concentration-dependent inhibition

B1: BMP4: bone morphogenetic protein 4, ligand of the TGF beta superfamily (protein, UniProt P12644 293-408, looked up)
Bone morphogenetic protein 4: SPKHHSQRARKKNKNCRRHSLYVDFSDVGWNDWIVAPPGYQAFYCHGDCPFPLADHLNSTNHAIVQTLVNSVNSSIPKACCVPTELSAISMLYLDEYDKVVLKNYQEMVVEGCGCR
respecification into astrocytes (morphological and gene expression changes) (EpiSC-derived OPCs [3]): upregulation of GFAP

B2: noggin: a BMP antagonist; secreted polypeptide encoded by the NOG gene (protein, UniProt Q13253 28-232, looked up)
Noggin: QHYLHIRPAPSDNLPLVDLIEHPDPIFDPKEKDLNETLLRSLLGGHYDPGFMATSPPEDRPGGGGGAAGGAEDLAELDQLLRQRPSGAMPSEIKGLEFSEGLAQGKKQRLSKKLRRKLQMWLWSQTFCPVLYAWNDLGSRFWPRYVKVGSCFSKRSCSVPEGMVCKPSKSVHLTVLRWRCQRRGGQRCGWIPIQYPIISECKCSC
expression of OPC-relevant transcription factors Olig2 and Nkx2.2 [4]: upregulation
